From patent US4613503A, “Antibiotic A26201-1 and antibiotic A26201-2 produced by a novel strain of actinoplanes” (The Dow Chemical Company, priority 1984, dated 1986)

How the values were obtained:
Assay type in all cases: cell-based
[1] = test system: Fusobacterium necrophorum; test: Minimum inhibitory concentration, agar dilution; conditions: trypticase soy agar, 2-fold serial dilutions
Mucor miehei = test: Minimum inhibitory concentration, agar dilution; conditions: trypticase soy agar, 2-fold serial dilutions
Aspergillus niger = test: Minimum inhibitory concentration, agar dilution; conditions: trypticase soy agar, 2-fold serial dilutions
Lactobacillus casei = test: Minimum inhibitory concentration, agar dilution; conditions: trypticase soy agar, 2-fold serial dilutions
Candida albicans = test: Minimum inhibitory concentration, agar dilution; conditions: trypticase soy agar, 2-fold serial dilutions
Clostridium septicum = test: Minimum inhibitory concentration, agar dilution; conditions: trypticase soy agar, 2-fold serial dilutions
Clostridium perfringens = test system: Clostridium perfringens
Actinomyces viscosus = test: Minimum inhibitory concentration, agar dilution; conditions: trypticase soy agar, 2-fold serial dilutions
Pircularia oryzae = test: Minimum inhibitory concentration, agar dilution; conditions: trypticase soy agar, 2-fold serial dilutions
Method: Minimum inhibitory concentrations (MIC's) were determined respectively for the crude broth material, antibiotic A26201, antibiotic A26201-1, antibiotic A26201-2, and gardimycin against a number of different microorganisms. The following techniques were used to determine the MIC's:
Thirty ml aliquots of trypticase soy agar were respectively placed in individual tubes. The agar was melted and then cooled to about 45° to 50° C. A concentration (2-fold serial dilutions of the highest concentration tested) of test antibiotic was added to each individual tube. Each test mixture was stirred and poured into an individual petri plate so that each petri plate contained a single concentration of antibiotic. When the agar hardened, the plates were inoculated with either aerobic or anaerobic test organisms. The plates inoculated with aerobic organisms were incubated at 37° C. for 24 hours and read for bacterial growth. The same plates were again incubated at 30° C. for an additional 48 hours at which point they were checked for yeast and fungal growth. The plates inoculated with anaerobic organisms were incubated at 37° C. in an anaerobic chamber and read at 48 hours.

Erwinia amylovora = test: Minimum inhibitory concentration, agar dilution; conditions: trypticase soy agar, 2-fold serial dilutions
Sarcina lutea = test: Minimum inhibitory concentration, agar dilution; conditions: trypticase soy agar, 2-fold serial dilutions
Streptococcus bovis = test: Minimum inhibitory concentration, agar dilution; conditions: trypticase soy agar, 2-fold serial dilutions
Bacteroides fragilis = test: Minimum inhibitory concentration, agar dilution; conditions: trypticase soy agar, 2-fold serial dilutions
Streptococcus faecalis = test: Minimum inhibitory concentration, agar dilution; conditions: trypticase soy agar, 2-fold serial dilutions
Bacteroides multiacidus = test: Minimum inhibitory concentration, agar dilution; conditions: trypticase soy agar, 2-fold serial dilutions
Pseudomonas aeruginosa = test: Minimum inhibitory concentration, agar dilution; conditions: trypticase soy agar, 2-fold serial dilutions
Escherchia coli = test: Minimum inhibitory concentration, agar dilution; conditions: trypticase soy agar, 2-fold serial dilutions
Staphylococcus aureus = test: Minimum inhibitory concentration, agar dilution; conditions: trypticase soy agar, 2-fold serial dilutions
Bacillus subtilis = test: Minimum inhibitory concentration, agar dilution; conditions: trypticase soy agar, 2-fold serial dilutions
Streptococcus mutans = test: Minimum inhibitory concentration, agar dilution; conditions: trypticase soy agar, 2-fold serial dilutions
Salmonella typhimurium = test: Minimum inhibitory concentration, agar dilution; conditions: trypticase soy agar, 2-fold serial dilutions

## gardimycin
[1]
  MIC: > 75 µg/mL
Mucor miehei
  MIC: > 75 µg/mL
Aspergillus niger
  MIC: > 75 µg/mL
Lactobacillus casei
  MIC: > 75 µg/mL
Candida albicans
  MIC: > 75 µg/mL
Clostridium septicum
  MIC: 3.1 µg/mL
Clostridium perfringens
  MIC: 3.1 µg/mL
Actinomyces viscosus
  MIC: 12.5 µg/mL
Pircularia oryzae
  MIC: > 75 µg/mL
Erwinia amylovora
  MIC: > 75 µg/mL
Sarcina lutea
  MIC: 1.5 µg/mL
Streptococcus bovis
  MIC: > 75 µg/mL
Bacteroides fragilis
  MIC: > 50 µg/mL
Streptococcus faecalis
  MIC: 25 µg/mL
Bacteroides multiacidus
  MIC: > 50 µg/mL
Pseudomonas aeruginosa
  MIC: > 75 µg/mL
Escherchia coli
  MIC: > 75 µg/mL
Staphylococcus aureus
  MIC: 75 µg/mL
Bacillus subtilis
  MIC: 75 µg/mL
Streptococcus mutans
  MIC: > 75 µg/mL
Salmonella typhimurium
  MIC: > 75 µg/mL
